Data published in ChEMBL document CHEMBL3120130, “Benzenesulfonamide bearing 1,2,4-triazole scaffolds as potent inhibitors of tumor associated carbonic anhydrase isoforms hCA IX and hCA XII” (Bioorg Med Chem, 2014).

Experiments:
Carbonic anhydrase 9 = Carbonic anhydrase 9 (Homo sapiens, UniProt Q16790); assay: Inhibition of human transmembrane carbonic anhydrase 9 by stopped flow CO2 hydration assay
Carbonic anhydrase 1 = Carbonic anhydrase 1 (Homo sapiens, UniProt P00915); assay: Inhibition of human cytosolic carbonic anhydrase 1 by stopped flow CO2 hydration assay
Sequence of Carbonic anhydrase 1 (P00915 whole entry): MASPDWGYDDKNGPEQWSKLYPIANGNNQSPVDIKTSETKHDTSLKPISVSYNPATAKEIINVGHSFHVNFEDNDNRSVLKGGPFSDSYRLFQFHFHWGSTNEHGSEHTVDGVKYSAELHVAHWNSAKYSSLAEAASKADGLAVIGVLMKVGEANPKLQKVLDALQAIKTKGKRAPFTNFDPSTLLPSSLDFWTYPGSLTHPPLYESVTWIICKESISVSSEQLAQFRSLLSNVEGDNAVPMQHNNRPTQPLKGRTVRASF

SMILES | Ki (Carbonic anhydrase 9) [nM] | Ki (Carbonic anhydrase 1) [nM]
NS(=O)(=O)c1ccc(-c2nnc3sc(-c4ccc([N+](=O)[O-])cc4)nn23)cc1 | 41 | > 10000
NS(=O)(=O)c1ccc(-c2nnc3sc(-c4ccc(Cl)cc4)nn23)cc1 | 89 | 
NS(=O)(=O)c1ccc(-c2nnc3n2N=C(c2ccc([N+](=O)[O-])cc2)CS3)cc1 | 115 | 
Cc1ccc(-c2nn3c(-c4ccc(S(N)(=O)=O)cc4)nnc3s2)cc1 | 356 | > 10000
NS(=O)(=O)c1ccc(-c2nnc3n2N=C(c2ccc(Cl)cc2)CS3)cc1 | 76 | 
NS(=O)(=O)c1ccc(-c2n[nH]c(=S)n2-c2ccc(S(N)(=O)=O)cc2)cc1 | 9 | 
NS(=O)(=O)c1ccc(-c2nnc3n2N=C(c2ccc(F)cc2)CS3)cc1 | 25 | 
NS(=O)(=O)c1ccc(-c2nnc3sc(-c4ccccc4)nn23)cc1 | 114 | 
NS(=O)(=O)c1ccc(-c2nnc3n2N=C(c2ccc(Br)cc2)CS3)cc1 | 3.7 | 
Cc1ccc(C2=Nn3c(nnc3-c3ccc(S(N)(=O)=O)cc3)SC2)cc1 | 13 | 
Cc1ccc(-c2n[nH]c(=S)n2-c2ccc(S(N)(=O)=O)cc2)cc1 | 16 | 
COc1ccc(-c2nn3c(-c4ccc(S(N)(=O)=O)cc4)nnc3s2)cc1 | 431 | > 10000
NS(=O)(=O)c1ccc(-c2nnc3sc(-c4ccc(Br)cc4)nn23)cc1 | 104 | 
NS(=O)(=O)c1ccc(-n2c(-c3ccc(Cl)cc3)n[nH]c2=S)cc1 | 5.7 | 
NS(=O)(=O)c1ccc(-c2nnc3sc(-c4ccc(F)cc4)nn23)cc1 | 64 | > 10000
NS(=O)(=O)c1ccc(-n2c(-c3ccc(Br)cc3)n[nH]c2=S)cc1 | 7.6 | 
NS(=O)(=O)c1ccc(-c2nnc3n2N=C(c2ccccc2)CS3)cc1 | 21 | 
NS(=O)(=O)c1ccc(-n2c(-c3ccc(F)cc3)n[nH]c2=S)cc1 | 2.8 | 
